In ChEMBL document CHEMBL3885861, “Open TG-GATES”:

Species: Rattus norvegicus
Assay: Open TG-GATES - Regimen: Daily Repeat
Format: toxicity, organism-based, Sprague-Dawley
Parameters: regimen Daily Repeat, gender Male, age 6 weeks
Settings: in vivo, po, 200 mg/kg, route gavage, dose level High; for APTT / Bas / Eos / Fbg / Hb / Ht / Lym / MCH / MCHC / MCV / Mono / Neu / PT / Plat / RBC / Ret / WBC: tissue Blood; for KIDNEY_L / KIDNEY_R / KIDNEY_TOTAL: tissue Kidney; for LIVER: tissue Liver; for A/G / ALP / ALT / AST / BUN / CRE / Ca / Cl / DBIL / GLC / IP / K / LDH / Na / PL / RALB / TBIL / TC / TG / TP / gamma-GTP: tissue Plasma

CC(CN1c2ccccc2Sc2ccccc21)N(C)C (configuration not stated) [PROMETHAZINE]
TERMINAL_BW (72 h, time 3 day): 194.8 g | APTT (72 h, time 3 day): 23.9 s | Bas (72 h, time 3 day): 0% | Eos (72 h, time 3 day): 0.8% | Fbg (72 h, time 3 day): 333.2 mg/dL | Hb (72 h, time 3 day): 15 g/dL | Ht (72 h, time 3 day): 44.4% | Lym (72 h, time 3 day): 74.6% | MCH (72 h, time 3 day): 20.7 pg | MCHC (72 h, time 3 day): 33.7% | MCV (72 h, time 3 day): 61.6 fL | Mono (72 h, time 3 day): 2.8% | Neu (72 h, time 3 day): 21% | PT (72 h, time 3 day): 16.6 s | Plat (72 h, time 3 day): 130.8 x10_4/uL | RBC (72 h, time 3 day): 722.2 x10_4/ul | Ret (72 h, time 3 day): 4.2% | WBC (72 h, time 3 day): 73 x10_2/uL | KIDNEY_L (72 h, time 3 day): 0.9 g | KIDNEY_R (72 h, time 3 day): 0.9 g | KIDNEY_TOTAL (72 h, time 3 day): 1.8 g | LIVER (72 h, time 3 day): 10 g | A/G (72 h, time 3 day): 1.3 | ALP (72 h, time 3 day): 1369.6 IU/L | ALT (72 h, time 3 day): 46.8 IU/L | AST (72 h, time 3 day): 69.2 IU/L | BUN (72 h, time 3 day): 14.8 mg/dL | CRE (72 h, time 3 day): 0.2 mg/dL | Ca (72 h, time 3 day): 10.2 mg/dL | Cl (72 h, time 3 day): 107.2 meq/L | DBIL (72 h, time 3 day): 0.08 mg/dL | GLC (72 h, time 3 day): 174.6 mg/dL | IP (72 h, time 3 day): 8.3 mg/dL | K (72 h, time 3 day): 4.3 meq/L | LDH (72 h, time 3 day): 204.6 IU/L | Na (72 h, time 3 day): 142.4 meq/L | PL (72 h, time 3 day): 159.4 mg/dL | RALB (72 h, time 3 day): 3.2 g/dL | TBIL (72 h, time 3 day): 0.024 mg/dL | TC (72 h, time 3 day): 98.6 mg/dL | TG (72 h, time 3 day): 75.6 mg/dL | TP (72 h, time 3 day): 5.8 g/dL | gamma-GTP (72 h, time 3 day): 1.4 IU/L | TERMINAL_BW ([…], time 7 day): 231 g | TERMINAL_BW ([…], time 14 day): 258.5 g | TERMINAL_BW ([…], time 28 day): 339.7 g | APTT ([…], time 7 day): 23.3 s | Bas ([…], time 7 day): 0% | Eos ([…], time 7 day): 1% | Fbg ([…], time 7 day): 306.2 mg/dL | Hb ([…], time 7 day): 14.1 g/dL | Ht ([…], time 7 day): 42.2% | Lym ([…], time 7 day): 76.4% | MCH ([…], time 7 day): 19.7 pg | MCHC ([…], time 7 day): 33.4% | MCV ([…], time 7 day): 59.1 fL | Mono ([…], time 7 day): 3.2% | Neu ([…], time 7 day): 18.6% | PT ([…], time 7 day): 15.9 s | Plat ([…], time 7 day): 115.2 x10_4/uL | RBC ([…], time 7 day): 714.2 x10_4/ul | Ret ([…], time 7 day): 3.9% | WBC ([…], time 7 day): 129.8 x10_2/uL | APTT ([…], time 14 day): 22.6 s | Bas ([…], time 14 day): 0% | Eos ([…], time 14 day): 1% | Fbg ([…], time 14 day): 369.4 mg/dL | Hb ([…], time 14 day): 15 g/dL | Ht ([…], time 14 day): 43.8% | Lym ([…], time 14 day): 70.4% | MCH ([…], time 14 day): 19.7 pg | MCHC ([…], time 14 day): 34.2% | MCV ([…], time 14 day): 57.4 fL | Mono ([…], time 14 day): 3.2% | Neu ([…], time 14 day): 24.6% | PT ([…], time 14 day): 16.1 s | Plat ([…], time 14 day): 120.6 x10_4/uL | RBC ([…], time 14 day): 763.2 x10_4/ul | Ret ([…], time 14 day): 4% | WBC ([…], time 14 day): 105 x10_2/uL | APTT ([…], time 28 day): 23.6 s | Bas ([…], time 28 day): 0% | Eos ([…], time 28 day): 1% | Fbg ([…], time 28 day): 316.4 mg/dL | Hb ([…], time 28 day): 15.3 g/dL | Ht ([…], time 28 day): 43.5% | Lym ([…], time 28 day): 71.6% | MCH ([…], time 28 day): 19.3 pg | MCHC ([…], time 28 day): 35.1% | MCV ([…], time 28 day): 55.1 fL | Mono ([…], time 28 day): 3% | Neu ([…], time 28 day): 23.4% | PT ([…], time 28 day): 16.4 s | Plat ([…], time 28 day): 108 x10_4/uL | RBC ([…], time 28 day): 791.6 x10_4/ul | Ret ([…], time 28 day): 3.3% | WBC ([…], time 28 day): 135.4 x10_2/uL | KIDNEY_L ([…], time 7 day): 1 g | KIDNEY_R ([…], time 7 day): 1.1 g | KIDNEY_TOTAL ([…], time 7 day): 2.1 g | KIDNEY_L ([…], time 14 day): 1.1 g | KIDNEY_R ([…], time 14 day): 1.1 g | KIDNEY_TOTAL ([…], time 14 day): 2.2 g | KIDNEY_L ([…], time 28 day): 1.3 g | KIDNEY_R ([…], time 28 day): 1.3 g | KIDNEY_TOTAL ([…], time 28 day): 2.6 g | LIVER ([…], time 7 day): 14.7 g | LIVER ([…], time 14 day): 15.1 g | LIVER ([…], time 28 day): 21.1 g | A/G ([…], time 7 day): 1.1 | ALP ([…], time 7 day): 1435.2 IU/L | ALT ([…], time 7 day): 56.4 IU/L | AST ([…], time 7 day): 75.4 IU/L | BUN ([…], time 7 day): 19.6 mg/dL | CRE ([…], time 7 day): 0.2 mg/dL | Ca ([…], time 7 day): 10.9 mg/dL | Cl ([…], time 7 day): 104.8 meq/L | DBIL ([…], time 7 day): 0.004 mg/dL | GLC ([…], time 7 day): 179.4 mg/dL | IP ([…], time 7 day): 7.8 mg/dL | K ([…], time 7 day): 4.5 meq/L | LDH ([…], time 7 day): 167.8 IU/L | Na ([…], time 7 day): 142 meq/L | PL ([…], time 7 day): 170.6 mg/dL | RALB ([…], time 7 day): 3 g/dL | TBIL ([…], time 7 day): 0.008 mg/dL | TC ([…], time 7 day): 84.8 mg/dL | TG ([…], time 7 day): 127 mg/dL | TP ([…], time 7 day): 5.7 g/dL | gamma-GTP ([…], time 7 day): 2.8 IU/L | A/G ([…], time 14 day): 1 | ALP ([…], time 14 day): 1417 IU/L | ALT ([…], time 14 day): 53.6 IU/L | AST ([…], time 14 day): 73.8 IU/L | BUN ([…], time 14 day): 20.6 mg/dL | CRE ([…], time 14 day): 0.2 mg/dL | Ca ([…], time 14 day): 11 mg/dL | Cl ([…], time 14 day): 103.2 meq/L | DBIL ([…], time 14 day): 0.014 mg/dL | GLC ([…], time 14 day): 184.6 mg/dL | IP ([…], time 14 day): 8 mg/dL | K ([…], time 14 day): 4.2 meq/L | LDH ([…], time 14 day): 249 IU/L | Na ([…], time 14 day): 143.4 meq/L | PL ([…], time 14 day): 182.4 mg/dL | RALB ([…], time 14 day): 3.1 g/dL | TBIL ([…], time 14 day): 0.018 mg/dL | TC ([…], time 14 day): 99 mg/dL | TG ([…], time 14 day): 117.2 mg/dL | TP ([…], time 14 day): 6.1 g/dL | gamma-GTP ([…], time 14 day): 3.4 IU/L | A/G ([…], time 28 day): 1 | ALP ([…], time 28 day): 1191.4 IU/L | ALT ([…], time 28 day): 54.6 IU/L | AST ([…], time 28 day): 66 IU/L | BUN ([…], time 28 day): 21.2 mg/dL | CRE ([…], time 28 day): 0.2 mg/dL | Ca ([…], time 28 day): 10.8 mg/dL | Cl ([…], time 28 day): 104.2 meq/L | DBIL ([…], time 28 day): 0.008 mg/dL | GLC ([…], time 28 day): 175.2 mg/dL | IP ([…], time 28 day): 6.8 mg/dL | K ([…], time 28 day): 4.1 meq/L | LDH ([…], time 28 day): 146 IU/L | Na ([…], time 28 day): 142.8 meq/L | PL ([…], time 28 day): 211.4 mg/dL | RALB ([…], time 28 day): 3.2 g/dL | TBIL ([…], time 28 day): 0.02 mg/dL | TC ([…], time 28 day): 116.8 mg/dL | TG ([…], time 28 day): 136.6 mg/dL | TP ([…], time 28 day): 6.3 g/dL | gamma-GTP ([…], time 28 day): 4.2 IU/L
